In patent US7812037B2, “Dual antiplatelet/anticoagulant pyridoxine analogs” (Medicure International, Inc., priority 2004, dated 2010):
pKi: −log10 of the molar value.

Key:
[1] = system: platelets (platelet rich plasma); test: Inhibition of platelet aggregation, collagen as agonist; assay type: cell-based; details: human PRP; for inhibition at 30 µM: compound 30 μM; for inhibition at 5 µM: compound 5 μM
Procedure: (§1) Platelet rich plasma (PRP) was obtained by drawing whole blood from normal human donors (not on any medication) into sodium citrate tubes (3.2%), and centrifuging at 160×g for about 10 minutes. Platelet poor plasma (PPP) was obtained by centrifuging the remainder of the sample after the platelets were removed at 800×g for about 10 minutes. The PRP was adjusted to a count of 280×10^9/L using a mixture of PRP and PPP. The platelets (200 μL) were incubated with the test compounds (25 μL) adjusted to various concentrations (5, 10, 20, 30, 50, and 100 μM) for about 30 minutes at room temperature (approximate final platelet count in the incubation mixture of 250×10^9/L). The samples were incubated for about 3 minutes at about 37° C., and then transferred to the mixing wells of a Chrono-log 4 channel aggregometer (Chrono-log Corp., Havertown, Pa.). After baselines were established, agonist (25 μL of 40 μM ADP (Sigma, St. Louis, Mo.) or 25 μL of 50 μg/mL and 10 μg/mL collagen (Helena Laboratories, Beaumont, Tex.) or 25 μL of 120 μM thrombin receptor activating peptide (TRAP) (Sigma)) was then added. Aggregation was monitored for 5 minutes at 37° C. with stirring (1000 rpm). The amplitude and slope of each tracing were calculated to determine the amount of aggregation. Control samples were performed using only solvent. The % reduction in aggregation was calculated for each sample compared to the proper solvent control.

Human FXa = molecular target: T1, Human FXa (Homo sapiens, UniProt P00742); test: Determination of Anti-Factor Xa (Fxa) Activity; assay type: biochemical; details: competitive inhibition; substrate Pefachrome Xa; pH 7.5
T1 construct: Determination of Anti-Factor Xa (Fxa) Activity; purchased Calbiochem
Procedure: The test compounds (40 μL) adjusted to various concentrations (0.25 to 100 μM) were incubated with 5 nM Human FXa (Calbiochem, San Diego, Calif.) enzyme in 125 mM Tris [Tris(hydroxymethyl)aminomethane] buffer (pH 7.5) containing 375 mM sodium chloride and 0.25% polyethylene glycol (MW 8000) (80 μL) at room temperature for about 30 minutes. 80 μL of synthetic substrate Pefachrome® Xa (Pentapharm, Basel, Switzerland), adjusted to various concentrations from 125 μM to 1.25 mM, was added. The activity was measured at 37° C. by monitoring absorbance at 405 nm for 15 minutes using a FLUOstar OPTIMA™ (BMG Labtech GmbH, Offenburg, Germany) microplate reader. Control sample was the solvent alone. Each test compound was analyzed twice using 4 concentrations of compound plus control (in duplicate) with 5 concentrations of substrate (50, 100, 200, 300 and 500 μM). The specific activity (ΔA405/min/nM enzyme) was determined for each data point. The Ki for competitive inhibition was then determined for each test compound using the Enzyme Kinetics module of Sigmaplot 8.0 (SPSS Inc., Chicago, Ill.).

[2] = system: platelets (platelet rich plasma); test: Inhibition of platelet aggregation, thrombin receptor activating peptide (TRAP) as agonist; assay type: cell-based; details: TRAP 12 μM, human PRP, read-out: % Reduction in Aggregation TRAP (12 μM); for inhibition at 30 µM: compound 30 μM
Procedure: as §1

Human Thrombin = molecular target: T2, Human Thrombin (Homo sapiens, UniProt P00734); test: Determination of Anti-Thrombin (Factor IIa) Activity; assay type: biochemical; details: competitive inhibition; substrate Pefachrome Thr; pH 8.3
T2 construct: Determination of Anti-Thrombin (Factor IIa) Activity; purchased Calbiochem
Procedure: The test compounds (40 μL) adjusted to various concentrations (0.25 to 100 μM) were incubated with Human Thrombin (Calbiochem) enzyme (5 nM) in 31 mM Tris buffer (pH 8.3) containing 81 mM sodium chloride and 0.63% bovine serum albumin (fraction V)(80 μL) at room temperature for about 30 minutes. 80 μL of Pefachrome® Thr (Pentapharm) was adjusted to various concentrations, from 62.5 μM to 1.25 mM. The activity was measured at about 37° C. by monitoring absorbance at 405 nm for about 15 minutes using a FLUOstar OPTIMA™. Control sample was the solvent alone. Each test compound was analyzed twice using 4 concentrations of compound plus control (in duplicate) with 5 concentrations of substrate (50, 100, 200, 300 and 500 μM). The specific activity (ΔA405/min/nM enzyme) was determined for each data point. The Ki for competitive inhibition was then determined for each test compound using the Enzyme Kinetics module of Sigmaplot 8.0 (SPSS).

[3] = system: platelets (platelet rich plasma); test: Inhibition of platelet aggregation, ADP as agonist; assay type: cell-based; details: ADP 4 μM, human PRP, read-out: % Reduction in Aggregation ADP (4 μM); for inhibition at 30 µM: compound 30 μM
Procedure: as §1

[4] = collagen 1 μg/mL, read-out: % Reduction in Aggregation Collagen (1 μg/mL)
[5] = collagen 5 μg/mL, read-out: % Reduction in Aggregation Collagen (5 μg/mL)

T1 sequence (P00742 235-488 limits assumed): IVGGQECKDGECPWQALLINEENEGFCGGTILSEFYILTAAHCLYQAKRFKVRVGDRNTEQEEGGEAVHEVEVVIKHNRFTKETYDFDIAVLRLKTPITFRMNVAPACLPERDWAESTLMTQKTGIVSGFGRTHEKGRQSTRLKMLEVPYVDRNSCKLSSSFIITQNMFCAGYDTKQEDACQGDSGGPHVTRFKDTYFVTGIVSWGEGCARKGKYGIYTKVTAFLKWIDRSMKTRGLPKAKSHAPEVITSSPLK
T1 sequence (P00742 41-179 partner limits assumed): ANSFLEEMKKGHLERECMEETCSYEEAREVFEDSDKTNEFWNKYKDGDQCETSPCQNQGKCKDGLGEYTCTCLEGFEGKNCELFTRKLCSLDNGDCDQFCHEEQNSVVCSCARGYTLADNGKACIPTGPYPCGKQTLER

Row | pKi (Human FXa) | pKi (Human Thrombin) | SMILES | inhibition at 30 µM [1, 4] [%] | inhibition at 30 µM [1, 5] [%] | inhibition at 30 µM [2] [%] | inhibition at 30 µM [3] [%] | inhibition at 10 µM ([1]; compound 10 μM, collagen 1 μg/mL, read-out: % Reduction in Aggregation Collagen (1 μg/mL)) [%] | inhibition at 10 µM ([2]; compound 10 μM) [%] | inhibition at 10 µM ([3]; compound 10 μM) [%] | inhibition at 50 µM ([1]; compound 50 μM, collagen 1 μg/mL, read-out: % Reduction in Aggregation Collagen (1 μg/mL)) [%] | inhibition at 50 µM ([2]; compound 50 μM) [%] | inhibition at 50 µM ([3]; compound 50 μM) [%] | inhibition at 5 µM [1, 4] [%] | inhibition at 5 µM [1, 5] [%] | inhibition at 5 µM ([2]; compound 5 μM) [%] | inhibition at 5 µM ([3]; compound 5 μM) [%]
1 | 6.49 | 5.42 | Cc1ncc(CNc2ccc(-c3ccc(C(=N)N)cc3)cc2)c(C)c1OCc1ccc(C(=N)N)cc1 [Compound 25, 4′-{[5-(4-Carbamimidoyl-benzyloxy)-4,6-dimethyl-pyridin-3-ylmethyl]-amino}-biphenyl-4-carboxamidine] | 96 | 52 | 95 | 93 | – | – | – | – | – | – | – | – | – | –
2 | 6.85 | 5.34 | Cc1ncc(CNc2ccc(-c3ccc(C(=N)N)cc3)cc2)c(C)c1OCc1cccc(C(=N)N)c1 [Compound 29, 4′-{[5-(3-Carbamimidoyl-benzyloxy)-4,6-dimethyl-pyridin-3-ylmethyl]-amino}-biphenyl-4-carboxamidine] | 32 | 15 | 32 | 52 | – | – | – | – | – | – | – | – | – | –
3 | 5.87 | 7.21 | Cc1ncc(CNc2ccc(C(=N)N)cc2)c(C)c1OCc1ccc(C(=N)N)cc1 [Compound 31, 4-{[5-(4-Carbamimidoyl-benzyloxy)-4,6-dimethyl-pyridin-3-ylmethyl]-amino}-benzamidine] | – | – | – | – | 83 | 84 | 80 | – | – | – | – | – | – | –
4 | 6.55 | 7.51 | Cc1ncc(CNc2ccc(C(=N)N)cc2)c(C)c1OCc1cccc(C(=N)N)c1 [Compound 33, 4-{[5-(3-Carbamimidoyl-benzyloxy)-4,6-dimethyl-pyridin-3-ylmethyl]-amino}-benzamidine] | – | – | – | – | – | – | – | 81 | 79 | 84 | – | – | – | –
5 | 5.21 | 6.07 | Cc1ncc(CNc2ccc(-c3ccc(C(=N)N)cc3)cc2)c(CNCCCCCC(=O)O)c1OCc1ccc(C(=N)N)cc1 [Compound 56, 6-({3-(4-Carbamimidoyl-benzyloxy)-5-[(4′-carbamimidoyl-biphenyl-4-ylamino)-methyl]-2-methyl-pyridin-4-ylmethyl}-amino) hexanoic acid] | – | – | – | – | – | – | – | – | – | – | 91 | 63 | 90 | 96
6 | 4.60 | 4.96 | Cc1ncc(CNc2ccc(-c3ccc(C(=N)N)cc3)cn2)c(CO)c1OCc1ccc(C(=N)N)cc1 [Compound 60] | 47 | 26 | 89 | 87 | – | – | – | – | – | – | – | – | – | –
